The values that follow come from patent US20230405316A1, “COMPOSITIONS, SYSTEMS, AND METHODS FOR TREATING CANCER USING TUMOR TREATING FIELDS AND VEGF INHIBITORS” (Novocure Gmbh, priority 2022, published 2023).

For one test, the target named is VEGFR-3 (Homo sapiens, UniProt P35916). The following applies: cited from earlier work.
For a further test, the target named is VEGFR-2 (Homo sapiens, UniProt P35968). Particulars: cited from earlier work.
The next test has as its target VEGFR-1 (Homo sapiens, UniProt P17948). The following applies: cited from earlier work.
Test [1] concerns ovarian carcinoma cell line (A2780). Kind of test: Concomitant therapy with TTFields and lenvatinib, cell count and apoptosis. It is filed as cell-based. The following applies: A2780 cells, 4 μM Lenvatinib combined with TTFields vs either therapy alone. As for the experimental part: FIG. 5 contains photomicrographs of A2780 cells following TTFields treatment alone, treatment with 4 μM Lenvatinib, and concomitant therapy with both TTFields and 4 μM Lenvatinib.
In particular, the combinatorial effect of TTFields and lenvatinib was examined in an ovarian carcinoma cell line (A2780).

Structures are written as SMILES. Structures can show the parent of a compound that is named as a salt.

Chain of VEGFR-3 (P35916 25-1363, species assumed): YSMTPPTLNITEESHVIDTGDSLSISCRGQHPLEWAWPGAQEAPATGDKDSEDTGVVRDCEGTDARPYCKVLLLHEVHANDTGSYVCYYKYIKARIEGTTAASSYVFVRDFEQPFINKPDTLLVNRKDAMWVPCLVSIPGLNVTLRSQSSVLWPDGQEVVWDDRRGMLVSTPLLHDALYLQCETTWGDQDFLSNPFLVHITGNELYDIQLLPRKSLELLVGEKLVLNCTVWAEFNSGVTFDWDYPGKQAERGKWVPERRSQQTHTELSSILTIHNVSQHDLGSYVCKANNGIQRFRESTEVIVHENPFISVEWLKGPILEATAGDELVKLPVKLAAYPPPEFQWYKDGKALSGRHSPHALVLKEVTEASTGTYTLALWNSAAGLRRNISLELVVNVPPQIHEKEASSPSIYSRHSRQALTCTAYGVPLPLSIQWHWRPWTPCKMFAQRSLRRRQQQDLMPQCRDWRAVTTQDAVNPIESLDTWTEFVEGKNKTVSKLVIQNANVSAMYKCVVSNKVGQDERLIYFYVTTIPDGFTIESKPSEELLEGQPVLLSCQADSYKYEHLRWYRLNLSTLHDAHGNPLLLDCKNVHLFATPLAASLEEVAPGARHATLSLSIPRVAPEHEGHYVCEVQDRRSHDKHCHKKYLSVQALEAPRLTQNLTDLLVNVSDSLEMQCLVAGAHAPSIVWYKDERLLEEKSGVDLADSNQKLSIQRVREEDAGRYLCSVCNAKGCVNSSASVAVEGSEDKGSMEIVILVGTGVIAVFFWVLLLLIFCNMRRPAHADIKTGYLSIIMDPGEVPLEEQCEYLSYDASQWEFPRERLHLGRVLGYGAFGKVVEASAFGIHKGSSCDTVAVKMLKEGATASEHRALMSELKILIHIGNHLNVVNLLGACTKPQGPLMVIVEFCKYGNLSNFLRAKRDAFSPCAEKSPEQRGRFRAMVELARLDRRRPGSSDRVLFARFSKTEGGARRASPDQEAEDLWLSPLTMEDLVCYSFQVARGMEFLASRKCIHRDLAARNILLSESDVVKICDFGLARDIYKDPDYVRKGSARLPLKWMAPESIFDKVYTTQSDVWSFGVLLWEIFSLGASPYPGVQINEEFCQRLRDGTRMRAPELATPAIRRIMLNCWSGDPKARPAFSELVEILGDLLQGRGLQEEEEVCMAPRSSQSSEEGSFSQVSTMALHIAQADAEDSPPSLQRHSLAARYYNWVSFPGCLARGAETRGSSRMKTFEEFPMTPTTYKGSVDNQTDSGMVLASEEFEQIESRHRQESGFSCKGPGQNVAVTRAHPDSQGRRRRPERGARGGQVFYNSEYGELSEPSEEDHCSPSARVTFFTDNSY
Chain of VEGFR-2 (P35968 20-1356, species assumed): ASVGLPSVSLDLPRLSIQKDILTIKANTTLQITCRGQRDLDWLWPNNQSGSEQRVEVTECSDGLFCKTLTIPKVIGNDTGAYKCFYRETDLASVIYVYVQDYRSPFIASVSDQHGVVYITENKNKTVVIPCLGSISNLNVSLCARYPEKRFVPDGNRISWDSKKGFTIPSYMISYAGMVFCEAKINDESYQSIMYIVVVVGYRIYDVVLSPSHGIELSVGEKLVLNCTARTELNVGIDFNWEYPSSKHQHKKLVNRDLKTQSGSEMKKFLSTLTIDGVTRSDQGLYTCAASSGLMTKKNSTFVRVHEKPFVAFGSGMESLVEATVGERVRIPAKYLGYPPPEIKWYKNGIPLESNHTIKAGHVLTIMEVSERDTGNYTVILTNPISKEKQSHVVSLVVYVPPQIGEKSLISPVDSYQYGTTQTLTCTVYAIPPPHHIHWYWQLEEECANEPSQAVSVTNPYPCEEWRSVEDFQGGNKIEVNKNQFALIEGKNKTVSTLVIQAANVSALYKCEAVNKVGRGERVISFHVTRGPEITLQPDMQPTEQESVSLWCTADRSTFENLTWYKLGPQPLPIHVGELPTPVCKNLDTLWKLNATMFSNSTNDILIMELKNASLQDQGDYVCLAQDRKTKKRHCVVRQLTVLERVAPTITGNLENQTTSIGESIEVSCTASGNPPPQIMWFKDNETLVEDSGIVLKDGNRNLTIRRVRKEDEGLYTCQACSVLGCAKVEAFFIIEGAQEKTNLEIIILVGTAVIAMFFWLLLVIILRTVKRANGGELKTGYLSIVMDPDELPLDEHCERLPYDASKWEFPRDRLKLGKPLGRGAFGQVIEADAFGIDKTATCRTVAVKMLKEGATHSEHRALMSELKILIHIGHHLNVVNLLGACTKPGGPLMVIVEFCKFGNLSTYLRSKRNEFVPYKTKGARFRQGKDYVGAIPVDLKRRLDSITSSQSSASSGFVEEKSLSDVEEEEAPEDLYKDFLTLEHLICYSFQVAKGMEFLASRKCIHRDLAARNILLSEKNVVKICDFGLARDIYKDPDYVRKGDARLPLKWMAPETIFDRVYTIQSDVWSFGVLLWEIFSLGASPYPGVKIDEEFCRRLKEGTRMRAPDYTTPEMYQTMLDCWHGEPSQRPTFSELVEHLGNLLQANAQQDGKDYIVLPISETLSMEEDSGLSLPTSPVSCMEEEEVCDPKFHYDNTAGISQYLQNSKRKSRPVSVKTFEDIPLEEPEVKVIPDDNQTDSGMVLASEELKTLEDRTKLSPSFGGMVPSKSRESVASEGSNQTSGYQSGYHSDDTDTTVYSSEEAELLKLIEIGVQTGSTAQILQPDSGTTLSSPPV
Chain of VEGFR-1 (P17948 27-1338, species assumed): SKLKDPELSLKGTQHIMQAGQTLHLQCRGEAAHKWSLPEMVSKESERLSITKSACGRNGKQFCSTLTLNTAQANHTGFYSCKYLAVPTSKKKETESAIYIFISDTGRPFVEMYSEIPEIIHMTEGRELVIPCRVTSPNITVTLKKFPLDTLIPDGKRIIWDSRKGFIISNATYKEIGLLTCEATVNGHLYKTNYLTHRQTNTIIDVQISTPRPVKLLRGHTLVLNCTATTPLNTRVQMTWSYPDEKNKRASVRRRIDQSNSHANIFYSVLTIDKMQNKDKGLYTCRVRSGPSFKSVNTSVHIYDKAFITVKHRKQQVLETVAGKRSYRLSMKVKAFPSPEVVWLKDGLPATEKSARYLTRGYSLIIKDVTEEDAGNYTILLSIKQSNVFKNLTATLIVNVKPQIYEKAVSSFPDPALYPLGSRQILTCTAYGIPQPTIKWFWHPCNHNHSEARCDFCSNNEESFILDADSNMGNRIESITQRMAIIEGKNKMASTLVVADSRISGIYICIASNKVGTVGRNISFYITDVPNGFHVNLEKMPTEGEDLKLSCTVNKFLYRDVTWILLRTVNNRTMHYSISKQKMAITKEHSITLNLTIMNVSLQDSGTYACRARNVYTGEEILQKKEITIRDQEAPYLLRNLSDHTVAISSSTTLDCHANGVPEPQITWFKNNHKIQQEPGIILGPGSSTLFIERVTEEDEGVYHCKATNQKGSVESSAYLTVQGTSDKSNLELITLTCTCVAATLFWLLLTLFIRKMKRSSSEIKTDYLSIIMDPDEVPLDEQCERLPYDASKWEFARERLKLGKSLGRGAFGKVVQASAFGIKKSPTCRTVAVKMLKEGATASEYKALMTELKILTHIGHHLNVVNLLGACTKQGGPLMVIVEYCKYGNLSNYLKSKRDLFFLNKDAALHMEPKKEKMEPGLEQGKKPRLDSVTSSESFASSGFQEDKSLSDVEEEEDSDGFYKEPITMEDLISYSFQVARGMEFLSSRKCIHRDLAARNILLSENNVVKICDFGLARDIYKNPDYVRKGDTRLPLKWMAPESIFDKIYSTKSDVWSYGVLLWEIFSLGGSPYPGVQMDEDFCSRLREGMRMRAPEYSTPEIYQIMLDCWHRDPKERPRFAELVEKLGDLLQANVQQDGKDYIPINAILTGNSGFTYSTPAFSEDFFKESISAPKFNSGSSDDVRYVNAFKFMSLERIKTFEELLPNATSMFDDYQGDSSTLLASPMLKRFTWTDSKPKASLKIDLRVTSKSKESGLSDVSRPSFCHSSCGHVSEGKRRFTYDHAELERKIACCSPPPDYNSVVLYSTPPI

For orientation: IC50 means the concentration that gives 50% inhibition. As to `COc1cc2c(Oc3ccc4[nH]c(C)cc4c3F)ccnc2cc1OCC1(N)CC1` [Anlotinib], at VEGFR-3, the “IC50 for VEGFR-3” value is reported as “Does not bind”. In addition, the concentration for half-maximal inhibition (IC50) at VEGFR-2 was less than 1 nM. Further, on VEGFR-1, the “IC50 for VEGFR-1” value was “Does not bind”.
As for `COc1cc2nccc(Oc3ccc(NC(=O)C4(C(=O)Nc5ccc(F)cc5)CC4)cc3)c2cc1OC` [Cabozantinib], the “IC50 for VEGFR-3” value at VEGFR-3 was “Does not bind”.
As for `COc1cc2nccc(Oc3ccc(NC(=O)Nc4ccc(F)cc4F)c(F)c3)c2cc1OC` [Ki8751], the half-maximal inhibitory concentration (IC50) on VEGFR-2 is 0.9 nM.
For `COc1cc2nccc(Oc3ccc(NC(=O)NC4CC4)c(Cl)c3)c2cc1C(N)=O` [Lenvatinib], in test [1], the “effect of concomitant therapy on apoptosis” value is “enhanced effect over either therapy alone” and the “effect of concomitant therapy on cell count” value is on record as “enhanced effect over either therapy alone”.
On to `Cc1c(C(=O)Nc2ccc(Oc3ccnc4cc(OCC(C)(C)O)ccc34)c(F)c2)c(=O)n(-c2ccccc2)n1C` [Ningetinib], for which the IC50 at VEGFR-2 is 1.9 nM.
For the compound `Cn1cc(-c2ccc3c(c2)ncn3-c2cc(NS(=O)(=O)C3CC3)cc(-c3ccc(F)cc3F)c2)cn1` [ODM-203], the concentration for half-maximal inhibition (IC50) at VEGFR-3 is 5 nM; on VEGFR-2, 9 nM; at VEGFR-1, 26 nM.
On to `COc1cc2c(cc1F)C(c1ccccc1Cl)=Nc1c(n[nH]c1C)N2` [R1530], for which, at VEGFR-2, the IC50 was 10 nM.
On to `Cc1[nH]c(/C=C2\C(=O)Nc3ccc(F)cc32)c(C)c1C(=O)NC[C@H](O)CN1CCOCC1` [SU14813], for which the IC50 is 50 nM on VEGFR-2 and 2 nM at VEGFR-1.
`CNC(=O)c1cc2c(Oc3ccc(NC(=O)C4(C(=O)Nc5ccc(F)cc5)CC4)cc3)ccnc2cc1OC` [XL092]: on VEGFR-2, the IC50 was 1.6 nM.
Regarding `Cc1cc(F)c(Nc2ncnc3cc(OCc4ccccc4)ccc23)cc1O` [ZM 323881 HCl], the IC50 at VEGFR-2 was less than 2 nM.
